Measured values taken from patent publication US20240115574A1, “INHIBITION OF nSMase FOR THE TREATMENT OF HUMAN IMMUNODEFICIENCY VIRUS INFECTION” (The Johns Hopkins University, priority 2018, published 2024).
Read-outs that look alike come from different tables or passages of the source.

What was measured:
[1] = target: nSMase2 (Homo sapiens (Human), UniProt Q9NY59); assay: nSMase2 inhibition (Tables 1A, 1B); assay type: biochemical
[2] = system: HIV1-Ada; assay: HIV-infected humanized mice (hu-NSG), viral load and cell populations; assay type: in vivo
Protocol: Humanization of NSG mice was determined 20 weeks following transplantation by flow cytometry (Miltenyl Biotec) using human specific antibodies directed against hCD45-APC (Leukocytes; Thermo Fisher), hCD3-PE (T cells; Biolegend), hCD14-PE/Cy7 (Macrophage; Biolegend), hCD19-BV421 (B cells; Biolegend). Percent humanization was calculated as a ratio for each of the human antibodies to a mouse specific antibody directed against mCD45-FITC (eBioscience). Mice>5% humanization (in each cell category) were included for experiments.
Reaction included a non-template control, non-enzyme control and sample was analyzed on an Applied Biosystem 7300 Real-Time PCR system (Life Technology). […] The dissociation stage was 95° C. for 15 sec, 60° C. for 1 min and 95° C. for 15 sec.
Drugs were reconstituted in 5% DMSO, 5% Tween-80 and 90% saline. Control mice injected with vehicle consisting of 5% DMSO, 5% Tween-80 in saline.

[3] = system: H9 cells and U1 cells; assay: Electron microscopy of HIV-infected H9 cells and TNF-α-stimulated U1 cells; assay type: cell-based; conditions: 10 μM for 6 h
Protocol: Representative electron microscope images of H9 cells (FIG. 6A) and U1 cells (FIG. 6B) treated with MS882 (31) (10 μM) for 6 h following HIV infection (H9 cells) or TNF-α stimulation (U1 cells). […] Scale bar, 1 μm;

[4] = system: HIV-1 Tat-regulated firefly luciferase reporter in TZM/Bl cells; conditions: dose response
[5] = system: HIV in U1 cells; assay: HIV replication (p24) in TNF-α-stimulated U1 cells; assay type: cell-based; conditions: TNF-α 500 ng/mL, 0.1 μM-10 μM, 12 h, 24 h, 48 h
Protocol: (§1) Quantification of HIV replication (p24 levels) in medium (top) and cell viability (bottom) of H9 cells (FIG. 4A), U1 cells (FIG. 4B), and human primary CD4+ cells (FIG. 4C) treated with nSMase2 inhibitor, MS882 (31). […] HIV replication and cell viability were measured at 12 h, 24 h, and 48 h after treatment of MS882 (31). Data are mean±S.D of n=3 per independent experiments/condition. *=p<0.05; **=p<0.01; ***=p<0.001 compared to uninfected control (H9 cells, primary human CD4+ cells), or non-TNFα-induced control (U1 cells). #=p<0.05; ##=p<0.01; ###=p<0.001 compared to HIV-infected or TNF-α-induced cells. One-Way ANOVA with Tukey post-hoc comparisons;

[6] = system: HIV-MN in primary human CD4+ cells; assay: HIV replication (p24) in human primary CD4+ cells; assay type: cell-based; conditions: HIV-MN 200 ng/mL, 0.1 μM-10 μM, 12 h, 24 h, 48 h
Protocol: as §1

[7] = system: HIV Rf in H9 cells; assay: HIV replication in HIV-infected H9 cells, P24 ELISA of culture supernatants; assay type: cell-based; conditions: H9 cells infected with HIV, dose response
Protocol: Controls included no-treatment and vehicle. Cell viability and P24 were measured every 24 h for 4 days.

[8] = system: ceramides; assay: Plasma ceramides in HIV-infected humanized mice; assay type: in vivo; conditions: 10 mg/Kg for 6 weeks
Protocol: Quantifications of multiple ceramides in plasma from uninfected humanized mice, HIV-infected humanized mice administered MS882 (31) (10 mg/Kg) or vehicle for 6 weeks. Data are mean±S.D of n=4-6 per group. *=p<0.05; **=p<0.01; ***=p<0.001 compared to uninfected humanized mice #=p<0.05; ##=p<0.01 compared to HIV-infected mice administered vehicle. One-Way ANOVA with Tukey post-hoc comparisons; Experimental drugs were delivered intraperitoneally at a dose of 10 mg/kg once daily beginning 5 weeks after HIV infection for a duration of 6 weeks. Drugs were reconstituted in 5% DMSO, 5% Tween-80 and 90% saline. Control mice injected with vehicle consisting of 5% DMSO, 5% Tween-80 in saline.

[9] = nSMase2, compounds of formula (II), Table 1B, read-out: Activity* (IC50 category)
[10] = nSMase2 inhibitors of formula (I), Table 1A, read-out: IC50
[11] = daily administration for 6 weeks

Chain of nSMase2 (Q9NY59 whole entry, species assumed): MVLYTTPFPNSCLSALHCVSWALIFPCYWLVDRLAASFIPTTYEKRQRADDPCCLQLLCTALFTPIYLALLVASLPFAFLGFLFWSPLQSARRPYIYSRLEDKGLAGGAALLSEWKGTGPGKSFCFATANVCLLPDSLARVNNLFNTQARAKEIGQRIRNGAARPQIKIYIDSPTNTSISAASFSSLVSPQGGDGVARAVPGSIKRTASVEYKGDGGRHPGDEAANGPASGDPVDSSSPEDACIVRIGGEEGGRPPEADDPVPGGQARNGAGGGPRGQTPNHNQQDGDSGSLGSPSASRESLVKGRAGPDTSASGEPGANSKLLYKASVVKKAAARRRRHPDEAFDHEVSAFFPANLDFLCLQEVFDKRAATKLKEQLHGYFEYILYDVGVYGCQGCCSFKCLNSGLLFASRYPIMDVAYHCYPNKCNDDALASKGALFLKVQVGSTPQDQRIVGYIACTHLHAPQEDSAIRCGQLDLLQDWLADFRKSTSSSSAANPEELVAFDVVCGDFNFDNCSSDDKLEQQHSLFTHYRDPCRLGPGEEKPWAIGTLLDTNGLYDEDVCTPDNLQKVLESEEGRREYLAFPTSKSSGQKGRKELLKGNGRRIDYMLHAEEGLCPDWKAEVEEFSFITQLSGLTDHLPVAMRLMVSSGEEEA

SMILES: COc1ccc(-c2csc3c(N4CC[C@@H](NC(C)=O)C4)ncnc23)cc1OC [27-PROV]
- IC50 [1, 9]: > 100 µM

SMILES: CC(=O)Nc1cccc(-c2c(C)nc3c(N4CC[C@@H](NC(C)=O)C4)cc(Cl)nn23)c1 [19-PROV]
- IC50 [1, 10]: > 100 µM

SMILES: COc1cccc(-c2c(C)nc3c(N4CC[C@@H](NC(C)=O)C4)cc(Cl)nn23)c1 [14-PROV]
- IC50 [1, 10]: > 100 µM

SMILES: CC(=O)N[C@@H]1CCN(c2cc(C)nn3c(-c4ccc(O)cc4)c(C)nc23)C1 [47-PROV]
- IC50 [1, 10]: ≤ 1 µM

SMILES: CC(=O)N[C@@H]1CCN(c2cc(Cl)nn3c(-c4ccc(F)cc4)c(C)nc23)C1 [18-PROV]
- IC50 [1, 10]: > 100 µM

SMILES: COc1ccc(-c2c(C)nc3c(N4CC[C@@H](NC(=O)C5CCCCC5)C4)cc(C)nn23)cc1 [Entry 31]
- populations of human CD14+ macrophages ([2]; 10 mg/kg daily I.P. for 6 weeks): selectively decreased populations of CD14+ macrophages
- HIV RNAs in tissues (spleen, lung, liver, brain), qRT-PCR for HIV1-p24 [2, 11]: decreased
- HIV+ (p24+) macrophages (hCD14+) in spleen, lung, liver, brain [2, 11]: decreased
- plasma HIV viral load ([2]; daily intraperitoneal administration, HIV-infected humanized mice): reduced plasma HIV viral load
- mice with plasma HIV viral load reduced to below detectable levels ([2]; daily intraperitoneal administration, individual mice): 3 out of 5
- endolysosomal morphology (electron microscopy) [3]: induced enlarged endolysosomal compartments engorged with EM-dense debris
- luciferase activity in TZM/B1 cells [4]: reduced luciferase activity in TZM/B1 cells at the highest doses tested
- HIV replication (p24 levels in medium) [5]: suppressed HIV-replication
- HIV replication (p24 levels in medium) [6]: suppressed HIV-replication
- HIV replication (P24 ELISA of culture supernatants) ([7]; listed as MS822 (31)): dose-dependently reduced HIV replication
- HIV replication (P24 ELISA of culture supernatants) ([7]; listed as MS882 (31)): suppressed HIV-replication
- multiple ceramides in plasma [8]: decreased elevations of multiple ceramides

SMILES: COc1ccc(-c2csc3c(N4CC[C@@H](NC(C)=O)C4)nc(Cl)nc23)cc1OC [24-PROV]
- IC50 [1, 9]: > 100 µM

SMILES: CC(=O)N[C@@H]1CCN(c2cc(C)nn3c(C)c(C)nc23)C1 [48-PROV]
- IC50 [1, 10]: > 1 µM

SMILES: COc1ccc(-c2scc3c(N4CC[C@@H](NC(C)=O)C4)nc(C)nc23)cc1OC [29b-PROV]
- IC50 [1, 9]: > 100 µM

SMILES: COc1cc(N2CC[C@@H](NC(C)=O)C2)c2nc(C)c(-c3ccc(OC)c(OC)c3)n2n1 [38-PROV]
- IC50 [1, 10]: > 1 µM

SMILES: COc1ccc(-c2c(C)nc3c(N4CC[C@@H](NC(C)=O)C4)cc(Cl)nn23)cc1 [11-PROV]
- IC50 [1, 10]: > 100 µM

SMILES: CC(=O)N[C@@H]1CCN(c2cc(C)nn3c(-c4ccc5c(c4)OCO5)c(C)nc23)C1 [40-PROV]
- IC50 [1, 10]: ≤ 1 µM

SMILES: CC(=O)N[C@@H]1CCN(c2cc(C)nn3c(I)c(C)nc23)C1 [23-PROV]
- IC50 [1, 10]: > 10 µM

SMILES: COc1ccc(-c2c(C)sc3c(N4CC[C@@H](NC(C)=O)C4)nc(C)nc23)cc1OC [29a-PROV]
- IC50 [1, 9]: > 100 µM

SMILES: CC(=O)N[C@@H]1CCN(c2cc(C)nn3c(-c4cccc(S(C)(=O)=O)c4)c(C)nc23)C1 [42-PROV]
- IC50 [1, 10]: > 1 µM

SMILES: COc1ccc(-c2c(C)sc3c(N4CC[C@@H](NC(C)=O)C4)ncnc23)cc1OC [28-PROV]
- IC50 [1, 9]: > 100 µM

SMILES: CC(=O)N[C@@H]1CCN(c2cc(Cl)nn3cc(C)nc23)C1 [9-PROV]
- IC50 [1, 10]: > 100 µM

SMILES: COc1ccc(-c2csc3c(N4CC[C@@H](NC(C)=O)C4)nc(C)nc23)cc1OC [30-PROV]
- IC50 [1, 9]: > 100 µM

SMILES: COc1ccc(-c2scc3c(N4CC[C@@H](NC(C)=O)C4)nc(Cl)nc23)cc1OC [26-PROV]
- IC50 [1, 9]: > 100 µM

SMILES: COc1ccc(-c2c(C)sc3c(N4CC[C@@H](NC(C)=O)C4)nc(Cl)nc23)cc1OC [25-PROV]
- IC50 [1, 9]: > 100 µM

SMILES: COc1cccc(-c2c(C)nc3c(N4CC[C@@H](NC(C)=O)C4)cc(C)nn23)c1 [20-PROV]
- IC50 [1, 10]: > 1 µM

SMILES: CC(=O)N[C@@H]1CCN(c2ccnn3cc(C)nc23)C1 [15-PROV]
- IC50 [1, 10]: > 10 µM

SMILES: CC(=O)Nc1cccc(-c2c(C)nc3c(N4CC[C@@H](NC(C)=O)C4)cc(C)nn23)c1 [22-PROV]
- IC50 [1, 10]: > 1 µM
